In patent publication US10159268B2, “Reduced sodium food products” (GENERAL MILLS, INC., priority 2013, dated 2018):

Assays:
[1] = Na-solution DAP test: trained panel rates saltiness of compounds in sodium solution; type: in vivo; set-up: key: DAP score; >3.1 indicates saltiness or salt enhancement; conditions: single compound in sodium solution; best DAP score of tested concentrations 0.1, 1 and 10 ppm; DAP score greater than 3.1 indicates saltiness or salt enhancement
Method: (§1) Briefly, each individual tested compound was placed in water and in sodium solution to test saltiness and saltiness enhancement potential. Tests in water were executed in a compound concentration of 10 ppm. Tests in sodium solution were executed in compound concentrations of 0.1, 1 and 10 ppm. Two control sodium solutions with known organoleptic salt intensities were provided as references for each test. The test for individual compounds was also conducted using simple broth instead of sodium solution. A number of compound combinations identified from the Na-solution DAP test were used for the broth DAP test. Tests were executed with a trained panel of 9-12 assessors. For Na-solution DAP tests, a DAP score of greater than 3.1 indicates saltiness or salt enhancement. The DAP score can be correlated with a sodium reduction potential by subtracting 3.1 from the DAP score. […] For broth DAP tests, a DAP score of greater than 7.6 indicates saltiness or salt enhancement. The DAP score can be correlated with a sodium reduction potential by subtracting 7.6 from the DAP score.

[2] = Broth DAP test: trained panel rates saltiness of compounds in simple broth; type: in vivo; set-up: key: DAP score; >7.6 indicates saltiness or salt enhancement in broth; conditions: single compound in simple broth; best DAP score of tested concentrations 0.1, 1 and 10 ppm; DAP score greater than 7.6 indicates saltiness or salt enhancement
Method: as §1

Row | Compound | DAP in Na-Sol. [1] | DAP in Broth [2]
1 | CCCCCC(CC(CCc1ccc(O)c(OC)c1)OC(C)=O)OC(C)=O (centres unmarked) [Compound 3, [6]-Gingerdiacetate] | 4.1 | 8.8
2 | CC/C=C\C/C=C\C/C=C\CCCCCCCC(=O)O [Compound 89, Linolenic acid] | 3.7 | 7.6
3 | C=CCCCCCCCCCCC[C@H](O)C[C@H](O)CO [Compound 82, 16-Heptadecene-1,2,4-triol; Avocadene] | 3.8 | 8.3
4 | C=CC(C)(O)CC[C@@]1(C)C2=C([C@H](OC(C)=O)[C@H](OC(C)=O)[C@H]1C)C(C)(C)CCC2 (some centres unmarked) [Compound 29, Vitetrifolin D] | 3.5 | 8.0
5 | CCC(O)CC(=O)CCc1ccccc1 (centres unmarked) [Compound 12, a 1-Ph-5-OH-3-heptanone] | 4 | 7.6
6 | C/C(=C\CC/C(C)=C/CC[C@@H]1[C@@]2(C)CCC(=O)C(C)(C)C2CC[C@@]1(C)O)CC/C=C(\C)C(=O)O (some centres unmarked) [Compound 52, Myrrhanone B] | 3.6 | 
7 | CCCCC[C@H](O)CC(=O)CCc1ccc(O)c(OC)c1 [Compound 5, [6]-Gingerol] | 3.6 | 
8 | COc1cc2c(c(OC)c1OC)-c1c(cc3c(c1OC)OCO3)CC(C)C(C)C2 (centres unmarked) [Compound 46, Schizandrin B] | 3.6 | 7.8
9 | C=CC(C)(CC/C=C(\C)CC/C=C(\C)CC/C=C(/C)COC1OC(C)C(O)C(OC2OC(COC3OC(C)C(O)C(O)C3OC(=O)/C(C)=C/CC/C(C)=C/CC/C(C)=C/CCC(C)(C=C)OC3OC(CO)C(O)C(O)C3OC3OC(CO)C(O)C(O)C3O)C(O)C(O)C2O)C1O)OC1OC(CO)C(O)C(O)C1OC1OC(CO)C(O)C(O)C1O (centres unmarked) [Compound 91, Capsianoside E] | 3.7 | 
10 | CCCCCCCCCCC[C@H](O)CC(=O)CCc1ccc(O)c(OC)c1 [Compound 1, 12-Gingerol] | 3.6 | 7.8
11 | COc1c(CC=C(C)C)c(=O)[nH]c2ccccc12 [Compound 61, Atanine] | 3.6 | 
12 | C=CC(C)(CC/C=C(\C)CC/C=C(\C)CC/C=C(/C)COC1OC(C)C(O)C(OC2OC(COC3OC(C)C(O)C(O)C3OC(=O)/C(C)=C/C(O)C/C(C)=C/CC/C(C)=C/CCC(C)(C=C)OC3OC(CO)C(O)C(O)C3OC3OC(CO)C(O)C(O)C3O)C(O)C(O)C2O)C1O)OC1OC(CO)C(O)C(O)C1OC1OC(CO)C(O)C(O)C1O (centres unmarked) [Compound 92, Capsianoside D] | 4 | 
13 | COc1c(OC)c(OC)c2c(c1OC)c(=O)c1ccccc1n2C [Compound 23, Melicopicine] | 2.9 | 8.3
14 | COc1cc(O)c(C(/C=C/CC(O)CCc2ccc(O)cc2)c2ccc(O)cc2)c2c1C(=O)CC(c1ccc(O)cc1)O2 (centres unmarked) [Compound 50, Epicalyxin C] | 4 | 
15 | O=C(O)/C=C/c1ccc(O)c2c1C(C(=O)OC(Cc1ccc(O)c(O)c1)C(=O)O)C(c1ccc(O)c(O)c1)O2 (centres unmarked) [Compound 40, a 3-benzofurancarboxylic ester] | 3.5 | 7.8
16 | CC(=O)OC1C(O)COC(OC2C(O)C(C)OC(OC(C)(CCC=C(C)C)C3C(O)CC4(C)C3CCC3C5(C)CCC(OC6OCC(O)C(O)C6O)C(C)(C)C5CCC34C)C2O)C1O (centres unmarked) [Compound 38] | 3.9 | 8.1
17 | CCCCCCCCC/C=C/C(=O)CCc1ccc(O)c(OC)c1 [Compound 2, [10]-Shogaol] | 3.5 | 7.8
18 | CCC=CCC=CC=CC(O)CCCCCCCC(=O)O (centres unmarked) [Compound 85, 9-hydroxy-10,12,15-Octadecatrienoic acid] | 2.9 | 
19 | COc1cc2oc(=O)ccc2c(OC)c1CC=C(C)C [Compound 28, Toddaculin] | 3.6 | 
20 | CC(C)=CCOc1c2occc2cc2ccc(=O)oc12 [Compound 64, Imperatorin] | 3.7 | 7.8
21 | C=C[C@@]1(C)CC(=O)C2[C@]3(C)C(C[C@@H](OC(C)=O)[C@@]2(O)C1=O)C(C)(C)[C@H](O)[C@H](OC(C)=O)[C@@H]3OC(=O)c1ccccc1 (some centres unmarked) [Compound 33, Orthosiphol M] | 3.4 | 7.7
22 | CC(C)C(=O)c1c2c(c3oc(=O)cc(-c4ccccc4)c3c1O)CC(C(C)(C)O)O2 (centres unmarked) [Compound 60, Mammea A/AD cyclo F] | 3.8 | 8.1
23 | CCC=CC=CC(O)CC=CCCCCCCCC(=O)O (centres unmarked) [Compound 86, 12-hydroxy-9,13,15-Octadecatrienoic acid] | 3.9 | 8.0
24 | O=C(/C=C/C=C/c1ccc2c(c1)OCO2)N1CCCCC1 [Compound 18, Piperine] | 3.8 | 8.1
25 | CC(=O)OC1CCC2(C)C(COc3ccc4ccc(=O)oc4c3)C(C)(O)CCC2C1(C)C (centres unmarked) [Compound 66, terpenoid coumarins] | 3.2 | 7.8
26 | COc1c2ccoc2c(OCC=C(C)C)c2oc(=O)ccc12 [Compound 65, Phellopterin] | 3.3 | 7.9
27 | CCCCC/C=C/C=C/C(O)CCCCCCCC(=O)O (centres unmarked) [Compound 88, Dimorphecolic acid] | 3.2 | 8.0

Row | Compound | DAP in Na-Sol. [1] | DAP in Broth [2]
28 | CCCCC/C=C\CCCCCCc1cc(=O)c2ccccc2n1C [Compound 17, Evocarpine] | 3.6 | 8.2
29 | COc1c(CC=C(C)C)c(=O)n(C)c2c(OC)cccc12 [Compound 25, O-Methylglycosolone] | 3.9 | 
30 | CCCCCC(CC(=O)CCc1ccc(O)c(OC)c1)OC (centres unmarked) [Compound 8, 5-methoxy-[6]-Gingerol] | 4 | 
31 | O=c1c2ccccc2nc2n1CCc1c-2[nH]c2ccccc12 [Compound 57, Rutaecarpine] | 3.1 | 
32 | CC1(C)CC[C@]2(C(=O)O)CC[C@]3(C)C(=CCC4[C@@]5(C)C[C@@H](O)[C@H](O)C(C)(C)C5CC[C@]43C)C2C1 (some centres unmarked) [Compound 42, Maslinic acid, Crategolic acid] | 3.1 | 8.1
33 | COC1CC(OC2CCC3(C=O)C(CCC4C3CCC3(C)C(C5=CC(=O)OC5)CCC43O)C2)OC(C)C1O (centres unmarked) [Compound 77, Apocannoside] | 3.4 | 8.1
34 | COc1cc2c(c(OC)c1OC)-c1c(cc(OC)c(OC)c1OC)C[C@H](C)[C@H](C)C2 [Compound 45, Schisandrin A, Deoxyschizandrin] | 3.5 | 8.2
35 | COc1cc(COC(=O)CCCC/C=C/C(C)C)ccc1O [Compound 13, Capsiate] | 3.8 | 7.9
36 | C=CCCCCCCC(C(=O)O)C(O)CC(=O)O (centres unmarked) [Compound 81, a 2-octenyl-3-hydroxy-1,5-pentanedioic acid] | 3.2 | 7.8
37 | COc1cc(CNC(=O)CCCCCCC(C)C)ccc1O [Compound 21, Dihydrocapsaicin] | 4 | 
38 | C=C1C(=O)OC2CC3(C)CCCC(C)C3=CC12 (centres unmarked) [Compound 80a, Alantolactone] | 3.9 | 
39 | CCCCC/C=C/C(=O)CCc1ccc(O)c(OC)c1 [Compound 4, 6-Shogaol] | 3.5 | 
40 | COc1ccc(-c2c(O)c3c(OC)c4c(cc3oc2=O)OC(C)(C)C=C4)cc1 [Compound 26, Robustic acid] | 3.4 | 
41 | CCC=CC(=O)CCc1ccccc1 [Compound 11, a 1-Ph-4-hepten-3-one] | 2.6 | 8.1
42 | C[C@H]1[C@H](C)CC[C@]2(C(=O)O)CC[C@]3(C)C(=CC[C@@H]4[C@@]5(C)CC[C@H](O)C(C)(C)[C@@H]5CC[C@]43C)[C@H]12 [Compound 43, Ursolic acid] | 3.7 | 8.0
43 | O=C(/C=C/CC/C=C/c1ccc2c(c1)OCO2)N1CCCCC1 [Compound 14, Pipersintenamide] | 3.6 | 
44 | C=C1C2CCC3C4(C)CCCC(C)(C(=O)O)C4CCC3(C2)C1OC(C)=O (centres unmarked) [Compound 94, Xylopic acid] | 4.2 | 
45 | CCCCCCCC(=O)CCc1ccc(O)c(OC)c1 [Compound 7, [6]-Paradol or [6]-Gingerone] | 3.7 | 
46 | CCCCCCC[C@H](O)CC(=O)CCc1ccc(O)c(OC)c1 [Compound 9, 8-Gingerol] | 3.8 | 
47 | C[C@@H]1C[C@H]2OC(=O)[C@@]3(C)CCC[C@](C)(C23)[C@@]1(O)CCc1ccoc1 (some centres unmarked) [Compound 31, Marrubin] | 3.2 | 
48 | C/C=C1\C(=O)CC2C3CCC4=CC(=O)CC[C@]4(C)C3CCC12C (some centres unmarked) [Compound 75, (Z)-Guggulsterone] | 3.6 | 
49 | CCC(O)CC(=O)CCc1ccccc1 (centres unmarked) [Compound 20, a 1-Ph-5-OH-3-heptanone] | 4 | 
50 | CCCCCCCCC(=O)CCc1ccc(O)c(OC)c1 [Compound 6, [7]-Paradol] | 3.8 | 
51 | COc1c2c(cc3oc(=O)ccc13)OC(C)(C)C=C2 [Compound 27, Xanthoxyletin] | 3.4 | 
52 | C=C1C(=O)O[C@@H]2C[C@@]3(C)CCCC(=C)[C@@H]3C[C@H]12 [Compound 80b, Isoalantolactone] | 3.9 | 
53 | CC(=O)OC1CC(C)C2(CCC3(COC(=O)C3)O2)C2(C)CCCC(C)(C)C12 (centres unmarked) [Compound 30] | 3.1 | 
